In the test the test system is bovine adrenal medullary microvascular endothelial cells. In words: Capillary endothelial cell growth and proliferation (cell count in hemacytometer). The test is classed as cell-based. On the procedure:
Cells in the amount of 2.0×10^4 were seeded per well in 24-well clusters in 1 ml complete EMEM containing 10% (v/v) serum and allowed to grow for 72 hours. Media were removed and the cells were washed twice with phosphate-buffer saline, pH 7.4 (PBS). Cells were synchronized by incubating for 48 hours in 2 mM hydroxyurea in serum-free EMEM with glutamine (2 mM) and one-third of penicillin-streptomycin used in a regular culture condition, followed by incubating 24 hours in serum-free EMEM, as discussed in CAO et al., “Modified Method of Mammalian Cell Synchronization Improves Yield and Degree of Synchronization”, Exp. Cell Res., 193:405-410 (1991), the disclosure of which is herein incorporated by reference in its entirety.
For proliferation assay, cells were trypsinized and counted in a hemacytometer. Viability of cells was determined by trypan blue (0.4% (v/v)) exclusion. Statistical analysis was carried out by StatView II software (Macintosh). Quantitation of cellular differentiation was carried out by observing under a Nikon AlphaShot inverted microscope, and counting the number of capillary lumen-like structures in five randomly selected fields per sample.
Synchronized cells, as described in Example 1, were cultured at 37° C. in complete EMEM containing fetal bovine serum (1% (v/v), 2% (v/v), or 10% (v/v), or complete EMEM with 2% (v/v) fetal bovine serum containing 1 ng/ml −100 ng/ml of bFGF/FGF-2, or containing 0.5 μg/ml to 5.0 μg/ml tunicamycin (lot number 10922120-07 from Boehringer-Mannheim, Indianapolis, Ind.). In each case, the cellular growth and proliferation was monitored by trypan blue exclusion, by counting the cell number, and by their ability to process through the cell cycle by flow cytometry.
Proliferation and Differentiation of Capillary Endothelial Cells: 2.0×10^4 cells were seeded per well in 24-well clusters in 1 ml complete EMEM containing 10% (v/v) serum and allowed to grow for 72 hours. Media were removed and the cells were washed twice with phosphate-buffer saline, pH 7.4 (PBS). […] Cells were routinely monitored by light microscopy. For proliferation assay, cells were trypsinized and counted in a hemacytometer. Viability of cells was determined by trypan blue (0.4% (v/v)) exclusion. […] Quantitation of cellular differentiation was carried out by observing under a Nikon AlphaShot inverted microscope, and counting the number of capillary lumen-like structures in five randomly selected fields per sample. The results were expressed as percent of its corresponding control after normalization of cell numbers. Analysis of Cell Cycle by Flow Cytometry: Assessment of the cell cycle was determined by propidium iodide staining of fixed cell nuclei followed by flow cytometry in a FacSort (Beckton Dickinson) according to the method of Krishan (1975) as modified by Vindelov (1977), as discussed in KRISHAN, “Rapid Flow Cytometric Analysis of Mammalian Cell Cycle by Propidium Iodide Staining”, J. Cell Biol. 66:188-195 (1975); and VINDELOV, “Flow Cytometric Analysis of Nuclear DNA in Cells from Solid Tumors and Cell Suspensions”, Virchows Arch (B), 24:227-231 (1977), the disclosures of which are herein incorporated by reference in their entireties. […]

“Also recorded” adds a separate entry of the source.

Take tunicamycin: the “effect on cell number / proliferation” value (1 μg/ml tunicamycin, 2% (v/v) serum, monitored up to 5 days) was “reduced the cell proliferation; also recorded: number of cells started declining; also recorded: started declining, and almost disappeared”. Also, where the note is “tunicamycin 0.5-5.0 μg/ml”, the “reversibility of growth reduction” value is reported as “reversible”.

Values taken from US7361643B2, “Methods for inhibiting angiogenesis” (University of Puerto Rico, priority 2000, dated 2008).
